The values below come from patent US10993987B2 (Sublimity Therapeutics Limited, priority 2014, dated 2021).

Series [1] in a line: Example 11 emulsion stability: time point when crystallisation was observed (polarised light microscopy). The series is classed as physicochemical. Particulars: for emulsion stability compared to sodium dodecyl sulfate (SDS): as aqueous phase surfactant of the cyclosporin emulsion. Here is the method:
Emulsions were prepared by mixing an oil phase and an aqueous phase, as described in Example 1. The oil phase was consistent for all emulsions of this example. The emulsion aqueous phase mixed was one of three aqueous mixtures. The three aqueous phases differed in the amount of surfactant, 0.7%, 1.3% and 2.5%, and water.
The emulsion was prepared by mixing the oil phase and aqueous phase in a oil:aqueous phase ratio of 1:5. The experiments were performed in triplicate, N=3. In order to replicate current manufacturing conditions as much as possible the following procedure was carried out: • Identical size beakers were used to ensure minimal variation between experiments • Identical submersible magnetic stirrers were placed in each beaker to keep the emulsions under constant magnetic stirring, and the same rpm stir rate used for each • Hot plates were used to maintain a constant emulsion temperature of 65° C. • Emulsions were kept covered with aluminium foil during the process
Sampling of the emulsion was carried out at various time points using disposable pipettes to avoid cross contamination.
(§1) Samples were withdrawn from each emulsion at half hour time intervals starting at time zero (t0) using a disposable pipette. Drops of emulsion were placed on a glass slide, pre heated on a hot plate. The sample was covered with a cover slip and a small amount of pressure applied to form a thin film of emulsion. The samples were allowed to solidify to room temperature before being viewed at ×50 and ×100 objective lens under polarised light to check for the presence of crystals. Results were recorded as optical photomicrographs with three images taken of each emulsion at each time point. Images documenting crystal growth and size with respect to time within the sample emulsion as well as background oil droplet size were collected.

The nature of series [2]: Example 11 emulsion droplet size by photomicrographs. It is filed as physicochemical.
Source text: as §1
Photomicrographs of the emulsions enabled the investigation of the droplet size as well as crystal formation. Smaller, more uniform droplet size was preferred.

Regarding `CCCCCCCCCCCCCCCCCCOS(=O)(=O)[O-].[Na+]` [Sodium n-Octadecyl Sulfate], in series [1], the “emulsion stability compared to sodium dodecyl sulfate (SDS)” value is on record as “comparable to that of sodium dodecyl sulfate”. Further, the “emulsion stability among tested surfactants” value in series [1] (each concentration (0.7%, 1.3%, 2.5% in aqueous phase)) is “best stability for each concentration”. Also, the “emulsion droplet characteristics (smaller, more uniform droplet size preferred)” value in series [2] is “preferred droplet characteristics were observed”.
With `CCCCCCCCOS(=O)(=O)[O-].[Na+]` [Sodium n-Octyl Sulfate], the “emulsion stability compared to sodium dodecyl sulfate (SDS)” value in series [1] is “comparable to that of sodium dodecyl sulfate”. The “emulsion droplet characteristics (smaller, more uniform droplet size preferred)” value in series [2] was “preferred droplet characteristics were observed”.
